How the values were obtained:
blackgrass = experiment: Test C preemergence/postemergence greenhouse plant response rating 0 to 100; format: in vivo, Alopecurus myosuroides; settings: POSTEMERGENCE; for Plant response rating, Blackgrass: 62 g/ha, 0 to 100 scale
How it was run: (§1)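 Compounds in non-phytotoxic solvent applied preemergence to sandy loam one day after planting, postemergence at the 1–4 leaf stage, or to ~2.5 cm floodwater over silt loam.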

rice = experiment: Test B preemergence/postemergence greenhouse plant response rating 0 to 10; format: in vivo, Oryza sativa; settings: 0 to 10 scale
How it was run: (§2)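 Postemergence treatment of plants two to eighteen cm tall ran alongside preemergence treatment of planted seed, each using compound in a non-phytotoxic solvent.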

wild buckwheat [1] = experiment: as above; format: in vivo, Polygonum convolvulus; settings: 0 to 10 scale
How it was run: as §2

barnyardgrass = experiment: Test C flood test plant response rating 0 to 100; format: in vivo, Echinochloa crus-galli; settings: for Plant response rating, Barnyardgrass: flood test species listed under POSTEMERGENCE, 62 g/ha, 0 to 100 scale
How it was run: as §1

wild oat = experiment: Test B preemergence/postemergence greenhouse plant response rating 0 to 10; format: in vivo, Avena fatua; settings: POSTEMERGENCE, 0 to 10 scale
How it was run: as §2

yellow nutsedge = experiment: Test G preemergence/postemergence greenhouse plant response rating 0 to 100; format: in vivo, Cyperus esculentus; settings: Rate 125 g/ha, 0 to 100 scale
How it was run: (§3)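 Greenhouse pots, one species each; non-phytotoxic solvent vehicle. Read-out: visual injury vs untreated, 13–21 DAT. Dash denotes no result.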

wheat = experiment: Test B preemergence/postemergence greenhouse plant response rating 0 to 10; format: in vivo, Triticum aestivum; settings: 0 to 10 scale
How it was run: as §2

peanut = experiment: Test G preemergence/postemergence greenhouse plant response rating 0 to 100; format: in vivo, Arachis hypoagaea; settings: 0 to 100 scale
How it was run: as §3

wild buckwheat [2] = experiment: Test C preemergence/postemergence greenhouse plant response rating 0 to 100; format: in vivo, Polygonum convolvulus; settings: POSTEMERGENCE; for Plant response rating, Wild buckwheat: 62 g/ha, 0 to 100 scale
How it was run: as §1

soybean = experiment: Test B preemergence/postemergence greenhouse plant response rating 0 to 10; format: in vivo, Glycine max; settings: 0 to 10 scale
How it was run: as §2

sugar beet = experiment: Test C preemergence/postemergence greenhouse plant response rating 0 to 100; format: in vivo, Beta vulgaris; settings: POSTEMERGENCE; for Plant response rating, Sugar beet: 62 g/ha, 0 to 100 scale
How it was run: as §1

lambsquarters = experiment: Test B preemergence/postemergence greenhouse plant response rating 0 to 10; format: in vivo, Chenopodium album; settings: 0 to 10 scale
How it was run: as §2

downy brome = experiment: Test C preemergence/postemergence greenhouse plant response rating 0 to 100; format: in vivo, Bromus tectorum; settings: POSTEMERGENCE; for Plant response rating Downy Brome: 62 g/ha, 0 to 100 scale
How it was run: as §1

sorghum = experiment: as above; format: in vivo, Sorghum bicolor; settings: POSTEMERGENCE; for Plant response rating, Sorghum: 62 g/ha, 0 to 100 scale
How it was run: as §1

[3] = POSTEMERGENCE section, flood test, Rate 1 g/ha
[4] = Rate 4 g/ha, under POSTEMERGENCE head (flood test species)
[5] = Rate 16 g/ha, under POSTEMERGENCE head (flood test species)

**Q.** Which results are given for CC(C)N1C(=O)COc2cc(F)c(-c3nn4c(c3Cl)CCCC4)cc21 [Compound 31]?
**A.** Plant response rating, Blackgrass (blackgrass): 40; Plant response rating (0 to 100), Blackgrass (blackgrass; Rate 1 g/ha): 10; Plant response rating (0 to 100), Blackgrass (blackgrass; Rate 4 g/ha): 20; Plant response rating (0 to 100), Blackgrass (blackgrass; Rate 16 g/ha): 30; Plant response rating, Rice (rice; POSTEMERGENCE, Rate 10 g/ha): 4; Plant response rating, Rice (rice; POSTEMERGENCE, Rate 50 g/ha): 7; Plant response rating, Rice (rice; PREEMERGENCE, Rate 50 g/ha): 0; Plant response rating, Wild buckwheat (wild buckwheat [1]; POSTEMERGENCE, Rate 10 g/ha): 10; Plant response rating, Wild buckwheat (wild buckwheat [1]; POSTEMERGENCE, Rate 50 g/ha): 10; Plant response rating, Wild buckwheat (wild buckwheat [1]; PREEMERGENCE, Rate 50 g/ha): 10; Plant response rating (0 to 100), Barnyardgrass (barnyardgrass; [3]): 20; Plant response rating (0 to 100), Barnyardgrass (barnyardgrass; [4]): 65; Plant response rating (0 to 100), Barnyardgrass (barnyardgrass; [5]): 90; Plant response rating, Barnyardgrass (barnyardgrass): 100; Plant response rating, Wild oat (wild oat; Rate 10 g/ha): 5; Plant response rating, Wild oat (wild oat; Rate 50 g/ha): 6; Plant response rating, Yellow Nutsedge (yellow nutsedge; POSTEMERGENCE): 0; Plant response rating, Yellow Nutsedge (yellow nutsedge; PREEMERGENCE): 0; Plant response rating, Wheat (wheat; POSTEMERGENCE, Rate 10 g/ha): 5; Plant response rating, Wheat (wheat; POSTEMERGENCE, Rate 50 g/ha): 5; Plant response rating, Wheat (wheat; PREEMERGENCE, Rate 50 g/ha): 1; Plant response rating, Peanuts (peanut; POSTEMERGENCE, Rate 125 g/ha): 0; Plant response rating, Peanuts (peanut; POSTEMERGENCE, Rate 250 g/ha): 0; Plant response rating, Peanuts (peanut; PREEMERGENCE, Rate 125 g/ha): 0; Plant response rating, Peanuts (peanut; PREEMERGENCE, Rate 250 g/ha): 0; Plant response rating, Wild buckwheat (wild buckwheat [2]): 100; Plant response rating (0 to 100), Wild buckwheat (wild buckwheat [2]; Rate 1 g/ha): 70; Plant response rating (0 to 100), Wild buckwheat (wild buckwheat [2]; Rate 4 g/ha): 70; Plant response rating (0 to 100), Wild buckwheat (wild buckwheat [2]; Rate 16 g/ha): 100; Plant response rating, Soybean (soybean; POSTEMERGENCE, Rate 10 g/ha): 7; Plant response rating, Soybean (soybean; POSTEMERGENCE, Rate 50 g/ha): 7; Plant response rating, Soybean (soybean; PREEMERGENCE, Rate 50 g/ha): 0; Plant response rating, Sugar beet (sugar beet): 100; Plant response rating (0 to 100), Sugar beet (sugar beet; Rate 1 g/ha): 60; Plant response rating (0 to 100), Sugar beet (sugar beet; Rate 4 g/ha): 100; Plant response rating (0 to 100), Sugar beet (sugar beet; Rate 16 g/ha): 100; Plant response rating, Lambsquarter (lambsquarters; POSTEMERGENCE, Rate 10 g/ha): 10; Plant response rating, Lambsquarter (lambsquarters; POSTEMERGENCE, Rate 50 g/ha): 10; Plant response rating, Lambsquarter (lambsquarters; PREEMERGENCE, Rate 50 g/ha): 10; Plant response rating Downy Brome (downy brome): 40; Plant response rating (0 to 100), Downy Brome (downy brome; Rate 1 g/ha): 10; Plant response rating (0 to 100), Downy Brome (downy brome; Rate 4 g/ha): 20; Plant response rating (0 to 100), Downy Brome (downy brome; Rate 16 g/ha): 40; Plant response rating, Sorghum (sorghum): 50; Plant response rating (0 to 100), Sorghum (sorghum; Rate 1 g/ha): 20; Plant response rating (0 to 100), Sorghum (sorghum; Rate 4 g/ha): 40; Plant response rating (0 to 100), Sorghum (sorghum; Rate 16 g/ha): 50

**Q.** Which “Plant response rating, Blackgrass” value (blackgrass) does the source give for CCCN1C(=O)COc2cc(F)c(-c3nn4c(c3Cl)CCCC4)cc21 [Compound 32] here?
**A.** 50

**Q.** And the “Plant response rating (0 to 100), Blackgrass” value (blackgrass; Rate 1 g/ha)?
**A.** 10

**Q.** And the “Plant response rating (0 to 100), Blackgrass” value (blackgrass; Rate 4 g/ha)?
**A.** 30

**Q.** What about the “Plant response rating (0 to 100), Blackgrass” value (blackgrass; Rate 16 g/ha) of the same molecule?
**A.** 30

**Q.** What about the “Plant response rating, Rice” value (rice; POSTEMERGENCE, Rate 10 g/ha) of the same molecule?
**A.** 4

**Q.** What about the “Plant response rating, Rice” value (rice; POSTEMERGENCE, Rate 50 g/ha) of the same molecule?
**A.** 7

**Q.** What about the “Plant response rating, Rice” value (rice; PREEMERGENCE, Rate 50 g/ha) of the same molecule?
**A.** 1

**Q.** And the “Plant response rating, Wild buckwheat” value (wild buckwheat [1]; POSTEMERGENCE, Rate 10 g/ha)?
**A.** 9

**Q.** What about the “Plant response rating, Wild buckwheat” value (wild buckwheat [1]; POSTEMERGENCE, Rate 50 g/ha) of the same molecule?
**A.** 10

**Q.** What about the “Plant response rating, Wild buckwheat” value (wild buckwheat [1]; PREEMERGENCE, Rate 50 g/ha) of the same molecule?
**A.** 8

**Q.** What about the “Plant response rating (0 to 100), Barnyardgrass” value (barnyardgrass; [3]) of the same molecule?
**A.** 30

**Q.** And the “Plant response rating (0 to 100), Barnyardgrass” value (barnyardgrass; [4])?
**A.** 55

**Q.** What about the “Plant response rating (0 to 100), Barnyardgrass” value (barnyardgrass; [5]) of the same molecule?
**A.** 100

**Q.** And the “Plant response rating, Barnyardgrass” value (barnyardgrass)?
**A.** 100

**Q.** And the “Plant response rating, Wild oat” value (wild oat; Rate 10 g/ha)?
**A.** 4

**Q.** And the “Plant response rating, Wild oat” value (wild oat; Rate 50 g/ha)?
**A.** 4

**Q.** What about the “Plant response rating, Yellow Nutsedge” value (yellow nutsedge; POSTEMERGENCE) of the same molecule?
**A.** 0

**Q.** And the “Plant response rating, Yellow Nutsedge” value (yellow nutsedge; PREEMERGENCE)?
**A.** 0

**Q.** What about the “Plant response rating, Wheat” value (wheat; POSTEMERGENCE, Rate 10 g/ha) of the same molecule?
**A.** 5

**Q.** And the “Plant response rating, Wheat” value (wheat; POSTEMERGENCE, Rate 50 g/ha)?
**A.** 5

**Q.** And the “Plant response rating, Wheat” value (wheat; PREEMERGENCE, Rate 50 g/ha)?
**A.** 0

**Q.** And the “Plant response rating, Peanuts” value (peanut; POSTEMERGENCE, Rate 125 g/ha)?
**A.** 0

**Q.** What about the “Plant response rating, Peanuts” value (peanut; POSTEMERGENCE, Rate 250 g/ha) of the same molecule?
**A.** 0

**Q.** And the “Plant response rating, Peanuts” value (peanut; PREEMERGENCE, Rate 125 g/ha)?
**A.** 0

**Q.** And the “Plant response rating, Peanuts” value (peanut; PREEMERGENCE, Rate 250 g/ha)?
**A.** 0

**Q.** What about the “Plant response rating, Wild buckwheat” value (wild buckwheat [2]) of the same molecule?
**A.** 95

**Q.** And the “Plant response rating (0 to 100), Wild buckwheat” value (wild buckwheat [2]; Rate 1 g/ha)?
**A.** 30

**Q.** And the “Plant response rating (0 to 100), Wild buckwheat” value (wild buckwheat [2]; Rate 4 g/ha)?
**A.** 60

**Q.** What about the “Plant response rating (0 to 100), Wild buckwheat” value (wild buckwheat [2]; Rate 16 g/ha) of the same molecule?
**A.** 90

**Q.** What about the “Plant response rating, Soybean” value (soybean; POSTEMERGENCE, Rate 10 g/ha) of the same molecule?
**A.** 7

**Q.** And the “Plant response rating, Soybean” value (soybean; POSTEMERGENCE, Rate 50 g/ha)?
**A.** 8

**Q.** What about the “Plant response rating, Soybean” value (soybean; PREEMERGENCE, Rate 50 g/ha) of the same molecule?
**A.** 0

**Q.** And the “Plant response rating, Sugar beet” value (sugar beet)?
**A.** 100

**Q.** What about the “Plant response rating (0 to 100), Sugar beet” value (sugar beet; Rate 1 g/ha) of the same molecule?
**A.** 80

**Q.** What about the “Plant response rating (0 to 100), Sugar beet” value (sugar beet; Rate 4 g/ha) of the same molecule?
**A.** 100

**Q.** What about the “Plant response rating (0 to 100), Sugar beet” value (sugar beet; Rate 16 g/ha) of the same molecule?
**A.** 100

**Q.** What about the “Plant response rating, Lambsquarter” value (lambsquarters; POSTEMERGENCE, Rate 10 g/ha) of the same molecule?
**A.** 10

**Q.** And the “Plant response rating, Lambsquarter” value (lambsquarters; POSTEMERGENCE, Rate 50 g/ha)?
**A.** 10

**Q.** And the “Plant response rating, Lambsquarter” value (lambsquarters; PREEMERGENCE, Rate 50 g/ha)?
**A.** 10

**Q.** And the “Plant response rating Downy Brome” value (downy brome)?
**A.** 50

**Q.** What about the “Plant response rating (0 to 100), Downy Brome” value (downy brome; Rate 1 g/ha) of the same molecule?
**A.** 20

**Q.** What about the “Plant response rating (0 to 100), Downy Brome” value (downy brome; Rate 4 g/ha) of the same molecule?
**A.** 30

**Q.** And the “Plant response rating (0 to 100), Downy Brome” value (downy brome; Rate 16 g/ha)?
**A.** 40

**Q.** What about the “Plant response rating, Sorghum” value (sorghum) of the same molecule?
**A.** 60

**Q.** And the “Plant response rating (0 to 100), Sorghum” value (sorghum; Rate 1 g/ha)?
**A.** 30

**Q.** What about the “Plant response rating (0 to 100), Sorghum” value (sorghum; Rate 4 g/ha) of the same molecule?
**A.** 40

**Q.** What about the “Plant response rating (0 to 100), Sorghum” value (sorghum; Rate 16 g/ha) of the same molecule?
**A.** 50

Reference: patent publication US6358885B1, “Substituted phenylheterocyclic herbicides” (Mississippi State University, priority 1992, dated 2002)
